How the values were obtained:
[1] = test system: ACHN (Kidney Carcinoma); assay: combination Emax (second highest fraction inhibited in the dose matrix, 72 h); higher = more inhibition; extreme values may be limits of the assay
Outline: (§1)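 Cell lines grown in DMEM/F12 or RPMI with 10% FBS were plated in 1536-well plates and held 24 hours at 37°C, 5% CO2 before 72 hours of exposure to two-drug dose matrices, with DMSO typically at 0.2%. CellTiter-Glo 2.0 luminescence gave viability, which was converted to inhibition. Vehicle wells were set to 0 and blank wells to 1. Combination Emax is the second-highest inhibition in the matrix, and Bliss excess is the observed combination effect minus the expected EA + EB − EA·EB, where EA and EB are the single-agent effects.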

[2] = test system: BT-549 (Breast Carcinoma); assay: as above
Outline: as §1

[3] = test system: UACC-62 (Melanoma); assay: as above
Outline: as §1

[4] = test system: SW13 (Other Solid Carcinomas); assay: as above
Outline: as §1

[5] = test system: MLMA (Other Blood Carcinomas); assay: as above
Outline: as §1

[6] = test system: NB69 (Neuroblastoma); assay: as above
Outline: as §1

[7] = test system: EFM-19 (Breast Carcinoma); assay: as above
Outline: as §1

[8] = test system: Caov-4 (Ovarian Carcinoma); assay: as above
Outline: as §1

[9] = test system: TK10 (Kidney Carcinoma); assay: as above
Outline: as §1

[10] = test system: MIA-PaCa-2 (Pancreatic Carcinoma); assay: as above
Outline: as §1

[11] = test system: OSC-20 (Oral Cavity Carcinoma); assay: Bliss excess, mean over the matrix (fraction); higher = more synergy
Outline: as §1

[12] = test system: JVM-3 (B-Cell Non-Hodgkin's Lymphoma); assay: as above
Outline: as §1

[13] = test system: PWR-1E (Non-Cancerous); assay: as above
Outline: as §1

[14] = test system: VA-ES-BJ (Other Solid Carcinomas); assay: as above
Outline: as §1

[15] = test system: NCI-H1915 (Non-Small Cell Lung Carcinoma); assay: as above
Outline: as §1

[16] = test system: HOP-62 (Lung Adenocarcinoma); assay: as above
Outline: as §1

[17] = test system: SU8686 (Pancreatic Carcinoma); assay: as above
Outline: as §1

[18] = test system: SCC-15 (Oral Cavity Carcinoma); assay: as above
Outline: as §1

[19] = test system: OE19 (Esophageal Adenocarcinoma); assay: as above
Outline: as §1

[20] = test system: TE-1 (Esophageal Squamous Cell Carcinoma); assay: as above
Outline: as §1
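For Bliss excess, mean over the matrix in this document: after 72 h of two-drug dosing.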

Compound | combination Emax [1] | combination Emax [2] | combination Emax [3] | combination Emax [4] | combination Emax [5] | combination Emax [6] | combination Emax [7] | combination Emax [8] | combination Emax [9] | combination Emax [10] | Bliss excess [11] | Bliss excess [12] | Bliss excess [13] | Bliss excess [14] | Bliss excess [15] | Bliss excess [16] | Bliss excess [17] | Bliss excess [18] | Bliss excess [19] | Bliss excess [20]
CN(CCO)CC[C@H](CSc1ccccc1)Nc1ccc(S(=O)(=O)NC(=O)c2ccc(N3CCC([C@@H](O)c4ccccc4-c4ccc(Cl)cc4)CC3)cc2)cc1S(=O)(=O)C(F)(F)F [AZD4320] + C=CCn1c(=O)c2cnc(Nc3ccc(N4CCN(C)CC4)cc3)nc2n1-c1cccc(C(C)(C)O)n1 [AZD1775] (first compound max 1 µM, partner max 1 µM) | 0.986 | 0.751 | 0.71 | 0.167 | 0.994 | 0.952 | 0.716 | 0.857 | 0.571 | 0.6 | -0.0933 | -0.101 | -0.0111 | 0.006 | 0.0125 | -0.0356 | -0.0598 | 0.0336 | 0.0072 | -0.0034
CN(CCO)CC[C@H](CSc1ccccc1)Nc1ccc(S(=O)(=O)NC(=O)c2ccc(N3CCC([C@@H](O)c4ccccc4-c4ccc(Cl)cc4)CC3)cc2)cc1S(=O)(=O)C(F)(F)F [AZD4320] + CCN(CCO)CCCOc1ccc2c(Nc3cc(CC(=O)Nc4cccc(F)c4)[nH]n3)ncnc2c1 [AZD2811] (first compound max 1 µM, 7x7, partner max 1 µM) | 0.207 | 0.432 | 0.201 | 0.378 | 0.228 | 0.902 | 0.932 | 0.448 | 0.439 | 0.512 | -0.062 | 0.165 | 0.0514 | -0.0259 | 0.0393 | -0.0197 | -0.03 | 0.0101 | -0.0349 | 0.0794
CN(CCO)CC[C@H](CSc1ccccc1)Nc1ccc(S(=O)(=O)NC(=O)c2ccc(N3CCC([C@@H](O)c4ccccc4-c4ccc(Cl)cc4)CC3)cc2)cc1S(=O)(=O)C(F)(F)F [AZD4320] + C[C@@H]1COCCN1C2=NC(=NC(=C2)C3(CC3)[S@](=N)(=O)C)C4=C5C=CNC5=NC=C4 [AZD6738] (first compound max 1 µM, 7x7, partner max 10 µM) | 0.986 | 0.552 | 0.7 | 0.405 | 0.83 | 0.959 | 0.716 | 0.874 | 0.866 | 0.632 | -0.0694 | -0.027 | -0.0313 | -0.012 | -0.044 | -0.0483 | -0.0222 | 0.0475 | -0.0789 | -0.004
CN(CCO)CC[C@H](CSc1ccccc1)Nc1ccc(S(=O)(=O)NC(=O)c2ccc(N3CCC([C@@H](O)c4ccccc4-c4ccc(Cl)cc4)CC3)cc2)cc1S(=O)(=O)C(F)(F)F [AZD4320] + C[C@@H](Nc1cc(F)cc(F)c1)c1cc(C(=O)N(C)C)cc2c(=O)cc(N3CCOCC3)oc12 [AZD8186] (first compound max 1 µM, 7x7, partner max 3 µM) | 0.252 | 0.456 | 0.67 | 0.592 | 0.701 | 0.97 | 0.82 | 0.461 | 0.54 | 0.444 | 0.0146 | 0.0456 | -0.0097 | 0.0393 | 0.0202 | -0.0226 | -0.0031 | -0.0179 | 0.0201 | -0.0549
Cc1cc2ncnn2cc1Nc1ncc2c(n1)n(C1CCOCC1)c(=O)n2C [AZD7648] + C=CCn1c(=O)c2cnc(Nc3ccc(N4CCN(C)CC4)cc3)nc2n1-c1cccc(C(C)(C)O)n1 [AZD1775] (first compound max 10 µM, partner max 1 µM) | 0.893 | 0.679 | 0.536 | 0.329 | 0.89 | 0.887 | 0.615 | 0.922 | 0.63 | 0.558 | -0.0252 | -0.0686 | 0.0256 | -0.008 | -0.0738 | -0.0093 | -0.0542 | 0.0938 | -0.0099 | -0.0045
Cc1cc2ncnn2cc1Nc1ncc2c(n1)n(C1CCOCC1)c(=O)n2C [AZD7648] + CCN(CCO)CCCOc1ccc2c(Nc3cc(CC(=O)Nc4cccc(F)c4)[nH]n3)ncnc2c1 [AZD2811] (first compound max 10 µM, 7x7, partner max 1 µM) | 0.329 | 0.361 | 0.312 | 0.506 | 0.351 | 0.655 | 0.536 | 0.445 | 0.42 | 0.516 | -0.0209 | 0.0791 | 0.0299 | -0.0034 | -0.0444 | 0.0126 | -0.0135 | 0.071 | 0.0151 | -0.0535
Cc1cc2ncnn2cc1Nc1ncc2c(n1)n(C1CCOCC1)c(=O)n2C [AZD7648] + CN(C)CCCOc1ccc(-c2ccc3ncc4c(c3c2)n(C2CCOCC2)c(=O)n4C)cn1 [AZD0156] (first compound max 10 µM, 7x7, partner max 1 µM) | 0.293 | 0.254 | 0.302 | 0.39 | 0.671 | 0.565 | 0.403 | 0.344 | 0.442 | 0.401 | -0.0082 | -0.0297 | 0.0532 | 0.0248 | -0.0208 | -0.0173 | -0.0144 | 0.0215 | 0.0583 | -0.051
Cc1cc2ncnn2cc1Nc1ncc2c(n1)n(C1CCOCC1)c(=O)n2C [AZD7648] + C[C@@H]1COCCN1C2=NC(=NC(=C2)C3(CC3)[S@](=N)(=O)C)C4=C5C=CNC5=NC=C4 [AZD6738] (first compound max 10 µM, 7x7, partner max 10 µM) | 0.888 | 0.441 | 0.624 | 0.499 | 0.67 | 0.865 | 0.541 | 0.916 | 0.753 | 0.592 | 0.0065 | 0.0108 | -0.109 | -0.0099 | -0.0216 | -0.0009 | -0.0289 | 0.0975 | -0.0607 | -0.0086
Cc1cc2ncnn2cc1Nc1ncc2c(n1)n(C1CCOCC1)c(=O)n2C [AZD7648] + O=C(c1cc(Cc2n[nH]c(=O)c3ccccc23)ccc1F)N1CCN(C(=O)C2CC2)CC1 [Olaparib] (first compound max 10 µM, 7x7, partner max 10 µM) | 0.211 | 0.18 | 0.253 | 0.203 | 0.279 | 0.541 | 0.401 | 0.199 | 0.234 | 0.22 | 0.0194 | -0.0053 | -0.0005 | -0.0416 | -0.0215 | -0.0528 | -0.0457 | -0.0408 | -0.0097 | -0.0298
COc1cc2c(cc1OCCCCCOc1cc3c(cc1OC)C(=O)N1C=C(C)C[C@H]1C=N3)N=C[C@@H]1CC(C)=CN1C2=O [SG3199] + O=C(c1cc(Cc2n[nH]c(=O)c3ccccc23)ccc1F)N1CCN(C(=O)C2CC2)CC1 [Olaparib] (first compound max 0.001 µM, 7x7, partner max 10 µM) | 0.0891 | 0.095 | 0.0735 | 0.0899 | 0.164 | 0.444 | 0.171 | 0.165 | 0.0517 | 0.168 | -0.0319 | -0.0278 | -0.0258 | 0.0099 | -0.0248 | -0.0276 | -0.0388 | -0.03 | 0.0098 | -0.0286

Reference: the supplement of paper PMC11061612
